From US6441049B2, “Method of treating neurodegenerative disorders via inhibition of amyloid beta peptide binding” (Ortho-McNeil Pharmaceutical, Inc., priority 1998, dated 2002)
Read-outs that look alike come from different tables or passages of the source.

Columns and labels:
[1] = tested on: acetylcholine release from guinea pig hippocampus synaptosomes; test: K+-evoked 3H-acetylcholine release from synaptosomes, effect of Aβs; assay type: cell-based; settings: for IC50: read-out: ACh Release (IC50)
Method: Synaptosomes from guinea pig hippocampus were incubated with 0.1 μM ^3H-choline and then subjected to repeated washes to remove unincorporated ^3H-choline. The synaptosomes were treated with 65 mM K^+ for 30 seconds to elicit 3H-acetylcholine release.

[2] = target: T1, Aβ aggregation (Homo sapiens, UniProt P05067); test: Aβ aggregation assay on Synthaloid plates with labelled Aβ1-40; assay type: biochemical
T1 construct: 100 nM of fluo-Aβ1-40 in 100 μl of each well of the 96-well Synthaloid plate; purchased Amersham Pharmacia Biotech (125I-Aβ1-40); Advanced Bioconcepts (fluo-Aβ1-40)
Method: Aβs are known to form aggregates leading to the formation of amyloid plaques that are characteristic of Alzheimer's disease. […] We have validated this aggregation assay using both ^125I-Aβ1-40 and fluo-Aβ1-40 in a buffer containing 50 mM HEPES, pH 7.4, 0.1% BSA, 10% FCS and protease inhibitors. About 500 pM of ^125I-Aβ1-40 or 100 nM of fluo-Aβ1-40 in 100 μl of each well of the 96-well Synthaloid plate was allowed to incubate for 2.5 hr at room temperature in the presence or absence of inhibitors. At the end of the incubation, unbound protein in the wells was removed by three washes using the above buffer. The amount of bound protein which represented Aβ aggregation was measured either by scintillation counting or fluorescence measurements.

[3] = target: 206-216 stretch of the human α7 nAChR (Homo sapiens, UniProt P36544); settings: inhibitors 1 uM to 10 uM
Method: A 2-5 ug quantity of the 11 amino acid peptide comprised of the 206-216 stretch of the α7 nAChR (N-Ac, C(O)NH2) are added to a 96-well microtiter plate in 50 mL 10 mM HEPES, pH 7.4, or any buffer 50 ul. ^125I-β-amyloid1-40 (2000 Ci/mmol, 50 pM) was added to the wells in the presence and absence of inhibitors (1 uM to 10 uM) dissolved in 1 uL of 30% or 100% DMSO. Unbound ligands were removed and bound radioactivity was measured using a Microbeta liquid scintillation counter.

[4] = 10 μM, read-out: % Inh Agg. (conc μM)

T1 sequence (P05067 672-711 limits assumed): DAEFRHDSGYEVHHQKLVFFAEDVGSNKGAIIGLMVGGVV

Structure (SMILES)	% ACh Release at 10 μM [1] [%]	% α7 nAChR 206-216 Binding ([3]; 125I-β-amyloid1-40 50 pM) [%]	% Inh Agg. (conc μM) ([2]; 10 μM)	other results
COc1ccc(OC)c2c1C[C@H](C)[C@H](Nc1ccc(OCCN3CCCCC3)cc1)C2 (relative stereo) [Compound 60, 5,8-Dimethoxy-cis-2-[N-(4-(2-(1-piperidinyl)ethoxy)phenyl)]amino-3-methyl-1,2,3,4-tetrahydronaphthalene]	24	0		% Inh Agg. (result in words) ([2]; concentration not given): very active
CCCN(CCC(C)CCC=C(C)C)C1Cc2c(O)ccc(O)c2CC1C (stereo not shown) [Compound 55]	15	0	50-90 (10) %	
CCCN(CCC)C1Cc2c(O)ccc(O)c2CC1C (stereo not shown) [Compound 16]			50-90 (10) %	IC50 [1]: 10000 nM; % α7 nAChR 206-216 Binding ([3]; […]): 44%
CCCN(CCC)C1Cc2c(O)ccc(O)c2CC1C (stereo not shown) [Compound 15]				IC50 [1]: 250 nM; inhibition at 10 µM [2, 4]: 50 to 90%; % α7 nAChR 206-216 Binding ([3]; […]): 85%
CCCCOc1ccc(CN(CCC)C2Cc3c(OC)ccc(OC)c3CC2C)cc1 (racemic) [Compound 37]			<30 (10) %	
CCCN(Cc1ccccc1Cl)C1Cc2c(OC)ccc(OC)c2CC1C (racemic) [Compound 39]			85 (10) %	
CCCN(CCC)C1Cc2c(O)ccc(OC)c2CC1C (stereo not drawn) [Compound 46, 5-Methoxy-8-hydroxy-trans-2-di(N-propylamino)-3-methyl-1,2,3,4-tetrahydronaphthalene]	0			inhibition at 10 µM [2, 4]: 50 to 90%; % α7 nAChR 206-216 Binding ([3]; […]): 18%
C#CCN(CCC)C1Cc2c(OP(=O)(c3ccccc3)c3ccccc3)ccc(OP(=O)(c3ccccc3)c3ccccc3)c2CC1C (stereo not shown) [Compound 57]	11	63	<30 (10) %	
CCCN(Cc1ccccc1)C1Cc2c(O)ccc(O)c2CC1C (racemic) [Compound 26]		64	<30 (10) %	
COc1ccc(OC)c2c1C[C@@H](N1CCOCC1)[C@@H](C)C2 (relative stereo) [Compound 23, 5,8-Dimethoxy-cis-2-(1-morpholinyl)-3-methyl-1,2,3,4-tetrahydronaphthalene]		54		
CCCN(C)C1Cc2c(O)ccc(O)c2CC1C (stereo not shown) [Compound 53]	18			inhibition at 10 µM [2, 4]: 50 to 90%; % α7 nAChR 206-216 Binding ([3]; […]): 0%
CCCN(Cc1cccs1)C1Cc2c(O)ccc(O)c2CC1C (racemic) [Compound 30]				% Inh Agg. (conc μM) ([2]; 5 μM): 38 (5) %
CCCN(C)C1Cc2c(OC)ccc(OC)c2CC1C (stereo not shown) [Compound 52]	0			inhibition at 10 µM [2, 4]: 60%; % α7 nAChR 206-216 Binding ([3]; […]): 0%
CCCN(CCC)C1Cc2c(OC)ccc(O)c2CC1C (stereo not drawn) [Compound 45, 5-Hydroxy-8-methoxy-trans-2-di(N-propylamino)-3-methyl-1,2,3,4-tetrahydronaphthalene]	78			inhibition at 78 µM ([2]; 78 μM as printed, read-out: % Inh Agg. (conc μM)): 30 to 50%
CCCN(Cc1ccc(I)cc1)C1Cc2c(O)ccc(O)c2CC1C (racemic) [Compound 36]			<30 (10) %	
CCCN(CCC)C1Cc2c(OC(=O)C(C)(C)C)ccc(O)c2CC1C (stereo not shown) [Compound 51]	54	0	30-50 (10) %	
CCCN(CCC)C1Cc2c(OC)ccc(OC)c2CC1C (stereo not drawn) [Compound 8, 5,8-Dimethoxy-trans-2-di(N-propylamino)-3-methyl-1,2,3,4-tetrahydronaphthalene]				IC50 ([1]; Cavia porcellus): 700 nM; inhibition at 10 µM [2, 4]: 50 to 90%
C#CCN(CCC)C1Cc2c(O)ccc(O)c2CC1C (racemic) [Compound 34]			69 (10) %	
C#CCN(CCC)C1Cc2c(O)ccc(OP(=O)(c3ccccc3)c3ccccc3)c2CC1C (stereo not shown) [Compound 56]	8	78	<30 (10) %	
CCCNC1Cc2c(OC)ccc(OC)c2CC1C (stereo not shown) [Compound 7, 5,8-Dimethoxy-2-N-propylamino-3-methyl-1,2,3,4-tetrahydronaphthalene]				inhibition at 100 µM ([2]; 100 μM, read-out: % Inh Agg. (conc μM)): 50%
CCCN(CCC)C1Cc2c(O)ccc(OCC=C(C)C)c2CC1C (racemic) [Compound 43]	0	10	50-90 (10) %	

Structure (SMILES)	% ACh Release at 10 μM [1] [%]	% α7 nAChR 206-216 Binding ([3]; 125I-β-amyloid1-40 50 pM) [%]	% Inh Agg. (conc μM) ([2]; 10 μM)	other results
CCCN(Cc1ccc(C)cc1)C1Cc2c(OC)ccc(OC)c2CC1C (racemic) [Compound 41]	14	19	<30(10) %	
CCCN(CCC)C1Cc2c(OC)ccc(OC)c2CC1C (single isomer, unassigned) [Compound 18]	70		50-90 (10) %	IC50 [1]: 10000 nM
CCCN(Cc1cccs1)C1Cc2c(OC)ccc(OC)c2CC1C (racemic) [Compound 29]			12 (10) %	
COC(=O)[C@H](C)NC1Cc2c(OC)ccc(OC)c2CC1C (stereo partly drawn) [Compound 48, 5,8-Dimethoxy-2-[N-(L-alanylmethyl ester)]-3-methyl-1,2,3,4-tetrahydronaphthalene]	0	2	<30 (10) %	
CCCN(CCC)C1Cc2c(OC)ccc(OC)c2CC1C (single isomer, unassigned) [Compound 17]	63		>90 (10) %	IC50 [1]: 1000 nM
CCCN(CC1CCCCC1)C1Cc2c(OC)ccc(OC)c2CC1C (racemic) [Compound 21]				% Inh Agg. (conc μM) ([2]; 5 μM): 20 (5) %
CCCN(Cc1ccc(I)cc1)C1Cc2c(OC)ccc(OC)c2CC1C (racemic) [Compound 35]			38 (10) %	
CCCN(Cc1ccccc1Cl)C1Cc2c(O)ccc(O)c2CC1C (racemic) [Compound 40]			75 (10) %	
C#CCN(CCC)C1Cc2c(O)ccc(O)c2CC1C (racemic) [Compound 32]			69 (10) %	
CCCN(CCC)C1Cc2c(O)ccc(OP(=O)(c3ccccc3)c3ccccc3)c2CC1C (stereo not shown) [Compound 58]	18	42	<30 (10) %	
CCCN(CCCc1ccccc1)C1Cc2c(O)ccc(O)c2CC1C (racemic) [Compound 20]				% Inh Agg. (conc μM) ([2]; 5 μM): 39 (5) %
CCCN(CCC(C)CCC=C(C)C)C1Cc2c(OC)ccc(OC)c2CC1C (stereo not shown) [Compound 54]	0	0	50-90 (10) %	
CC1Cc2c(O)ccc(O)c2CC1N1CCOCC1 (stereo not drawn) [Compound 24, 5,8-Dihydroxy-cis-2-(1-morpholinyl)-3-methyl-1,2,3,4-tetrahydronaphthalene]		43		
C#CCN(CCC)C1Cc2c(OC)ccc(OC)c2CC1C (racemic) [Compound 31, 5,8-Dimethoxy-cis and trans-2-(N-propyl-N-propargyl)amino-3-methyl-1,2,3,4-tetrahydronaphthalene]			34 (10) %	
CCCN(Cc1ccc(O)cc1)C1Cc2c(O)ccc(O)c2CC1C (racemic) [Compound 38]			<30 (10) %	
CCCN(CC1CCCCC1)C1Cc2c(O)ccc(O)c2CC1C (racemic) [Compound 22]				% Inh Agg. (conc μM) ([2]; 50 μM): 38 (50) %
CCCN(Cc1ccccc1)C1Cc2c(OC)ccc(OC)c2CC1C (racemic) [Compound 25]		48		
CCCN(CCCSC)C1Cc2c(O)ccc(O)c2CC1C (racemic) [Compound 28]		34	50-90 (10) %	
CCCN(Cc1ccc(C)cc1)C1Cc2c(O)ccc(O)c2CC1C (racemic) [Compound 42]			60 (10) %	
CCCN(CCCc1ccccc1)C1Cc2c(OC)ccc(OC)c2CC1C (racemic) [Compound 19]				% Inh Agg. (conc μM) ([2]; 5 μM): 30 (5) %
CCCN(CCC)C1Cc2c(OCC=C(C)C)ccc(O)c2CC1C (racemic) [Compound 44]	0	23	50-90 (10) %	
